Data taken from patent US12454518B2, “Substituted N-(2-(2,6-dioxopiperidin-3-yl)-1,3-dioxoisoindolin-5-yl)arylsulfonamide analogs as modulators of cereblon protein” (ST. JUDE CHILDREN'S RESEARCH HOSPITAL, INC., priority 2020, dated 2025).
Like-named read-outs stand apart in the source and are kept apart here.

Experiments:
[1] = Aqueous solubility assay; format: physicochemical; settings: pH = 7.4, in triplicate
Experimental: The storage plate was sealed and incubated at RT for 18 h. The suspension was then filtered through a 96-well filter plate (pION Inc., Woburn, MA). 75 μL of filtrate was mixed with 75 μL 1-propanol to make the sample plate, and the UV spectrum of the sample plate was read. Calculations were carried out with μSOL Evolution software based on the area under the curve (AUC) of the UV spectrum of the sample and reference plates. All compounds were tested in triplicate.

[2] = biological target: T1, GSPT1 (Homo sapiens, UniProt P15170+Q96SW2); assay: Immunoblot analysis of GSPT1 degradation in MV4-11 cells; format: cell-based; parameters: Dmax: dose or concentration left out as unconfirmed
T1 construct: endogenous in cells; host or cells: MV4-11
T1 sequence (P15170 whole entry): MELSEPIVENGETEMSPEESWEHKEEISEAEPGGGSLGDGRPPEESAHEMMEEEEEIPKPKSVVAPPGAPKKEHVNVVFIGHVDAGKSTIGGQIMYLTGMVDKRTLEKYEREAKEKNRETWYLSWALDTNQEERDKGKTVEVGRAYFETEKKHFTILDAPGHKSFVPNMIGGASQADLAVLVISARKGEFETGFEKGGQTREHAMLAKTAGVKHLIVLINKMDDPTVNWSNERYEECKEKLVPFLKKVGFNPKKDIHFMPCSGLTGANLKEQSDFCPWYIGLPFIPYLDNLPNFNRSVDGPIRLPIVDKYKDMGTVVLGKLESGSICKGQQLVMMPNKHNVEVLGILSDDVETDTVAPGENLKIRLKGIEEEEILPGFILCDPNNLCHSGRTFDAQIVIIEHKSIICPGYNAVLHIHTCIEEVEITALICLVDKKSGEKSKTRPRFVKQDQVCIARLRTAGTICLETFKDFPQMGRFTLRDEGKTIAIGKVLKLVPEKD
T1 sequence (Q96SW2 whole entry): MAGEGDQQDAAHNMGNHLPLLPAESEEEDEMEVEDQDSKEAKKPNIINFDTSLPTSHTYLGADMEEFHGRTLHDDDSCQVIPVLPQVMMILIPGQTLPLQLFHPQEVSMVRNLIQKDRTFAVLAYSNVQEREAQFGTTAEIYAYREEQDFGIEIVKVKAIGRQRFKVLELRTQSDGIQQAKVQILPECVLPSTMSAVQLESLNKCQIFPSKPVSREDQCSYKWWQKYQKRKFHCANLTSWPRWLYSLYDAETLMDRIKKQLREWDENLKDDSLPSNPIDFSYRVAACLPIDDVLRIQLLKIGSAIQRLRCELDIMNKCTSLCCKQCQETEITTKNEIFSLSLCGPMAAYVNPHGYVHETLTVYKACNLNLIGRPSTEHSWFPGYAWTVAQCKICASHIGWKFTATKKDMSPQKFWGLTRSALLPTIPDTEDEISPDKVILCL
T1 sequence (Q16531 2-1140 partner limits assumed): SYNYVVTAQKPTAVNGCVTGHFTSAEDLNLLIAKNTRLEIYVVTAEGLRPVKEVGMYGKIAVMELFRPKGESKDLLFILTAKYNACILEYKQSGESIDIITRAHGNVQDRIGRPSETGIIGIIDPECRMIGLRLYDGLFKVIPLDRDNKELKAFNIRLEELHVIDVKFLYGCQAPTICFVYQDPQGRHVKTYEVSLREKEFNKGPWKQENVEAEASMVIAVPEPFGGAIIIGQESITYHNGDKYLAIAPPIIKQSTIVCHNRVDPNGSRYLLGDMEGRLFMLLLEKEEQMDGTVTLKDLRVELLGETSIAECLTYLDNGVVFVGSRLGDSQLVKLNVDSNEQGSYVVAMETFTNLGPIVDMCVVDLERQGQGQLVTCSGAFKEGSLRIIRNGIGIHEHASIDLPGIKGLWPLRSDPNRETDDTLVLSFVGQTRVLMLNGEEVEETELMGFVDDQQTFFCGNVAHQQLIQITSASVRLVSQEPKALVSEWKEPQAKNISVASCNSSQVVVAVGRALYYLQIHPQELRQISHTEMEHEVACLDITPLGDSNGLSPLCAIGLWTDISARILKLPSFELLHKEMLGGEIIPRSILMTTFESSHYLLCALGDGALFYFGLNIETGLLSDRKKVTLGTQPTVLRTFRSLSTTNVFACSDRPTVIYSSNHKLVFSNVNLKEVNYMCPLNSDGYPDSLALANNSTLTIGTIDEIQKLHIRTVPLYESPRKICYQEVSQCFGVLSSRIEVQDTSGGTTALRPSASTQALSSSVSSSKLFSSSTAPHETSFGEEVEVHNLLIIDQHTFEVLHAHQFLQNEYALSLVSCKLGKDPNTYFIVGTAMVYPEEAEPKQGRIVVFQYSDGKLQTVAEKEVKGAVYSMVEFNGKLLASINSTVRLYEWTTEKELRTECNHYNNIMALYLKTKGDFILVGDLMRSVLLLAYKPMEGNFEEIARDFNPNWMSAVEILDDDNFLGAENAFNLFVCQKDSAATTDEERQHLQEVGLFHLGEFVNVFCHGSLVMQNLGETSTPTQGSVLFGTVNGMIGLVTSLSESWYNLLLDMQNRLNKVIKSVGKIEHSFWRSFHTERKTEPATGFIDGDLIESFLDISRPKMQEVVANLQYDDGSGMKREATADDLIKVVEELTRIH
Experimental: (§1) MV4-11 cells were seeded in 6-well plates (1×10^6 cells per well). After overnight incubation, the cells were treated with indicated concentrations for specific timepoints. […] After blocking the membrane with LI-COR TBS blocking buffer and incubation in primary antibody overnight, the corresponding protein signals were detected using IRDye secondary antibodies and Odyssey Imaging System. Image Studio Lite Ver 5.2 was used for blot quantification. […] IRDye®, 800CW Goat anti-Mouse IgG Secondary Antibody and IRDye® 680RD Goat anti-Rabbit IgG Secondary Antibody were used as secondary antibodies.

[3] = biological target: T2, IKZF1 (Homo sapiens, UniProt Q13422); assay: Immunoblot analysis of IKZF1 degradation in MV4-11 cells; format: cell-based; settings: for IKZF1 degradation at 4 hours: any of the concentrations tested
T2 construct: endogenous in cells; host or cells: MV4-11
T2 sequence (Q96SW2 whole entry partner): as the sequence (Q96SW2 whole entry) above
T2 sequence (Q16531 2-1140 partner limits assumed): as the sequence (Q16531 2-1140 partner limits assumed) above
T2 sequence (Q13422 whole entry): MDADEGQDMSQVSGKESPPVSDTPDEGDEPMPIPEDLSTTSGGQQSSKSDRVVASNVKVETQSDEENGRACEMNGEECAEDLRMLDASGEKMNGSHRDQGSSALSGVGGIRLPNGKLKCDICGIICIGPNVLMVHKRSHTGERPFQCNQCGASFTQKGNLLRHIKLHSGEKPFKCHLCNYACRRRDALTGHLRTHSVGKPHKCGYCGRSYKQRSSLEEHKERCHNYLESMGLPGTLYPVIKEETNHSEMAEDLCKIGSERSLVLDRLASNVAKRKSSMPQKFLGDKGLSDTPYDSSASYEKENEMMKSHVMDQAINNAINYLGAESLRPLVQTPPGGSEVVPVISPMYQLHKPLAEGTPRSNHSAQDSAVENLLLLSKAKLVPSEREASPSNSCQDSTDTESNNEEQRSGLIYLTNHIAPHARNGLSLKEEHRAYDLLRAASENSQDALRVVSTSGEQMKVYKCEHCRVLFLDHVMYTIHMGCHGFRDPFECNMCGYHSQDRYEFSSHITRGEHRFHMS
Experimental: as §1

[4] = system: MV4-11 cells; assay: MV-4-11 cell viability assay; settings: for EC50: Homo sapiens
Experimental: MV-4-11 cell line was purchased from the American Type Culture Collection (ATCC, Manassas, VA). The cells were cultured according to recommendations in IMDM cell culture media (ATCC). […] Compounds were transferred to the assay plate from a dose-response plate using a Pintool on a Biomek FXP Laboratory Automation Workstation (Beckman Coulter). […] Luminescence was measured on an Envision plate reader (Perkin-Elmer).
After overnight incubation at 37° C. in a humidified 5% CO2 incubator, cells were treated with compounds in dose-response format using a Pintool on a Biomek FX^P Laboratory Automation Workstation (Beckman Coulter). […] Luminescence signal was measured using an Envision plate reader (Perkin-Elmer).

[5] = system: caspase 3/7 activity in Mv4:11 cells; assay: Caspase 3/7 activity assay; format: cell-based, human; settings: Caspase-Glo, time points 4, 8 and 24 hours; 10 and 100 nM
[6] = Pharmacokinetics study in CD1 mice; format: in vivo; settings: 3 mg/kg IV
Experimental: Healthy female CD1 mice (8-12 weeks old) weighing between 20 to 30 g were procured from Global, India. Three mice were housed in each cage. Temperature and humidity were maintained at 22±3° C. and 30-70%, respectively and illumination was controlled to give a sequence of 12 hr light and 12 hr dark cycle. Temperature and humidity were recorded by auto-controlled data logger system. All the animals were provided laboratory rodent diet (Envigo Research private Ltd, Hyderabad). Reverse osmosis water treated with ultraviolet light was provided ad libitum. Formulation vehicle: 5% v/v NMP: 5% v/v Solute HS-15 and 90% v/v normal saline. […] The dosing volume for intravenous was 5 mL/kg and for oral administration 10 mL/kg. Blood samples (approximately 60 μL) were collected under light isoflurane anesthesia (Surgivet®) from retro orbital plexus from a set of three mice at 0.08 (for IV only), 0.25, 0.5, 1, 2, 4, 6 (for PO only), 8, 12 and 24 hr. Immediately after blood collection, plasma was harvested by centrifugation at 4000 rpm, 10 min at […] and samples were stored at −70±10° C. until bioanalysis. […] Non-Compartmental-Analysis tool of Phoenix WinNonlin® (Version 8.0) was used to assess the pharmacokinetic parameters. Peak plasma concentration (Cmax) and time for the peak plasma concentration (Tmax) were the observed values. The areas under the concentration time curve (AUClast and AUCinf) were calculated by linear trapezoidal rule. The terminal elimination rate constant, ke was determined by regression analysis of the linear terminal portion of the log plasma concentration-time curve. Clearance was estimated as Dose/AUCinf and Vss as CL*MRT. The oral bioavailability was calculated as ratio of dose normalized AUC of oral and intravenous group multiplied by 100.

[7] = system: MV4-11 cells; assay: Lenalidomide competition assay; format: cell-based, human; settings: lenalidomide 10 μM, 3 days
Experimental: Compounds were screened in human cancer cell lines and each cell line was cultured in the complete medium recommended by the vendor and seeded in Corning 8804BC white 384-well assay plates at density of 1,000, 1,000, 1,000, 1,500 and 7,500 cells per well, for MV4-11, HD-MB03, MB004, MB002 and MHH-CALL4 cells respectively. After overnight incubation at 37° C. in a humidified 5% CO2 incubator, cells were treated with compounds in dose-response format using a Pintool on a Biomek FX^P Laboratory Automation Workstation (Beckman Coulter). […] After 72 h incubation, cell proliferation was assessed using Cell Titer-Glo (CTG) luminescent cell viability assay (Promega) according to the manufacturer's instruction. Luminescence signal was measured using an Envision plate reader (Perkin-Elmer).

[8] = biological target: T3, GSPT1 HiBiT tag protein in HEK293 cells (Homo sapiens, UniProt P15170+Q96SW2); assay: hGSPT1 HiBiT assay; format: cell-based; settings: 4 hrs incubation, class symbols, read-out: GSPT1 HiBit EC50
T3 construct: HEK293_hGSPT1_HiBiT tagged cells were generated using CRISPR-Cas12a technology; endogenous in cells; host or cells: HEK293 (genome-edited at the GSPT1 locus, HiBiT knock-in)
T3 sequence (P15170 whole entry): as the sequence (P15170 whole entry) above
T3 sequence (Q96SW2 whole entry): as the sequence (Q96SW2 whole entry) above
T3 sequence (Q16531 2-1140 partner limits assumed): as the sequence (Q16531 2-1140 partner limits assumed) above
Experimental: hGSPT1 HiBiT cell line. HEK293_hGSPT1_HiBiT tagged cells were generated using CRISPR-Cas12a technology. Briefly, ˜400,000 HEK293 cells were transiently co-transfecting with precomplexed ribonuclear proteins (RNPs) consisting of 80 pmol of crRNA (IDT), 62 pmol of Cas12a protein (IDT), 3 ug of ssODN donor (IDT; AItR™ modifications), 78 pmol of electroporation enhancer (IDT), and 200 ng of pMaxGFP(Lonza). The transfection was performed via nucleofection (Lonza, 4D-Nucleofector™ X-unit) using solution P3 and program CM-130 in a small (20 ul) cuvette according to the manufacturer's recommended protocol. Five days post-nucleofection, cells were single cell sorted for GFP+(transfected) cells by FACs in 96-well plates and clonally selected. Clones were screened and verified for the desired modification via targeted deep sequencing using gene specific primers with partial Illumina adapter overhangs as previously described.^58 In brief, clonal cell pellets were harvested, lysed and used to generate gene specific amplicons with partial Illumina adapters in PCR #1. Amplicons were indexed in PCR #2 and pooled with other targeted amplicons for other loci to create sequence diversity. Additionally, 10% PhiX Sequencing Control V3 (Illumina) was added to the pooled amplicon library prior to running the sample on an Miseq Sequencer System (Illumina) to generate paired 2×250 bp reads. Samples were demultiplexed using the index sequences, fastq files were generated, and NGS analysis was performed using CRIS.py.^59 Final clones were authenticated using the PowerPlex® Fusion System (Promega) performed at the Hartwell Center (St. Jude) and tested negative for mycoplasma by the MycoAlert™Plus Mycoplasma Detection Kit (Lonza). Editing construct sequences and screening primers are listed below in Table 4.
hGSPT1 HiBiT assay. […] After 4 hrs incubation, the level of GSPT1 HiBiT tag protein was evaluated using Nano-Glo® HiBiT Lytic Detection System (Promega) according to the manufacturer's instruction.

[9] = biological target: T4, 6XHis-CRBN-DDB1 protein (Homo sapiens, UniProt Q96SW2); assay: CRBN fluorescence polarization assay; format: binding; settings: class symbols; read-out: CRBN FP IC50
T4 construct: 6XHis (N)
T4 sequence (Q96SW2 whole entry): as the sequence (Q96SW2 whole entry) above
T4 sequence (Q16531 whole entry partner): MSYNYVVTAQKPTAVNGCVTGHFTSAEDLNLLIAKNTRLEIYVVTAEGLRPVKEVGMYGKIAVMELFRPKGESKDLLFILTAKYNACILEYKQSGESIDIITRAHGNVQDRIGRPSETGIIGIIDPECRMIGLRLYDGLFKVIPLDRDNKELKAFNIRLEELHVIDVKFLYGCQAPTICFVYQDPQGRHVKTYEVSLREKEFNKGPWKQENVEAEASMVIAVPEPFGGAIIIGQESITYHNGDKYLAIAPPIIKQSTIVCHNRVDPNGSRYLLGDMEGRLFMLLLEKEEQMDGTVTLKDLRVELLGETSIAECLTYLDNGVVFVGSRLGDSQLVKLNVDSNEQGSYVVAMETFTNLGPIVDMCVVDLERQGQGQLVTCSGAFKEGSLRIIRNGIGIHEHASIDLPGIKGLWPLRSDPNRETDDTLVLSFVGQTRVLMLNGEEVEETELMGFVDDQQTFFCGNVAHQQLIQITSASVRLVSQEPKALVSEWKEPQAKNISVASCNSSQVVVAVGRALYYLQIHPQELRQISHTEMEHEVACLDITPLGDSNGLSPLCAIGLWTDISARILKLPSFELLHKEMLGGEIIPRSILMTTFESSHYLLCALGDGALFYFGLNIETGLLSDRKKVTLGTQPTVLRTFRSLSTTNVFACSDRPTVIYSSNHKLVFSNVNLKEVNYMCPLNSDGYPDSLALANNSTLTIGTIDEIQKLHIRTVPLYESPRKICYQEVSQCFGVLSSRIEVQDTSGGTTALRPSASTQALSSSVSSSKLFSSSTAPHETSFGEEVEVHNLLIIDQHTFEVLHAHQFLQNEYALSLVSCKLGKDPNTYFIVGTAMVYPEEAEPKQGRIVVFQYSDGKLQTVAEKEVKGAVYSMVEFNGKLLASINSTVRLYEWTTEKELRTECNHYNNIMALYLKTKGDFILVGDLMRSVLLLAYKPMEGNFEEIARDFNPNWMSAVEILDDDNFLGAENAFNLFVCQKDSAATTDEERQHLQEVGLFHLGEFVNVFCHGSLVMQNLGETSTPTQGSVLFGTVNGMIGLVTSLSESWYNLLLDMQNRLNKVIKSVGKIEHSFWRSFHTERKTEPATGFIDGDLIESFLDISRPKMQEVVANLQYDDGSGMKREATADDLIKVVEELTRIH
Experimental: 6XHis-CRBN-DDB1 protein (200 nM) and Cy5-O-Len probe (30 nM) were combined in 20 mM HEPES pH 7, 150 mM NaCl, 0.005% Tween-20 assay buffer. […] The plates were incubated in the dark for 1 hour at room temperature and then read on an Envision plate reader (PerkinElmer, Massachusetts, USA).

[10] = MV4-11, 72 h, read-out: MV4-11 EC50
[11] = MV4-11, read-out: antiproliferative activity in MV4-11, EC50

O=C1CCC(N2Cc3cc(CNC(=O)C(F)(F)c4ccc(Cl)cc4)ccc3C2=O)C(=O)N1 (stereo not drawn) [CC90009, reference compound]
Sol. (aqueous solubility) [1]: 77 µM

O=C1CCC(N2Cc3cc(CNC(=O)C(F)(F)c4ccc(Cl)cc4)ccc3C2=O)C(=O)N1 (stereo not drawn) [CC-90009, reference compound]
Dmax at 10 µM ([2]; MV4-11 cells, 4 h, at 10 μM, read-out: GSPT1 maximum degradation efficacy, Dmax): 74% | Dmax ([2]; MV4-11 cells, 24 h, read-out: GSPT1 Dmax): > 90% | Dmax ([3]; 24 h): > 90%

O=C1CCC(N2C(=O)c3ccc(NS(=O)(=O)c4ccccc4OC(F)(F)F)cc3C2=O)C(=O)N1 (stereo not drawn) [compound 1, N-(2-(2,6-dioxopiperidin-3-yl)-1,3-dioxoisoindolin-5-yl)-2-(trifluoromethoxy)benzenesulfonamide]
EC50 [4, 10]: 1.5 nM | EC50 [4, 11]: 1.5 nM | time point at which caspase activation was observed [5]: 8 h | clearance [6]: 0.46 mL/min/kg | terminal elimination half-life (t1/2) [6]: 3.4 h | volume of distribution [6]: 0.15 L/kg | Sol. (aqueous solubility) [1]: 67 µM | IKZF1 degradation at 4 hours [3]: did not significantly degrade IKZF1 | IKZF1 protein abundance after 24 hours [3]: dose-dependent decrease | antiproliferative effect in presence of lenalidomide [7]: abrogating the antiproliferative effects

O=C1CCC(N2C(=O)c3ccc(NS(=O)(=O)c4cccc(OC(F)(F)F)c4)cc3C2=O)C(=O)N1 (stereo not drawn) [compound 2, N-(2-(2,6-dioxopiperidin-3-yl)-1,3-dioxoisoindolin-5-yl)-3-(trifluoromethoxy)benzenesulfonamide]
EC50 [4, 10]: > 10000 nM | EC50 [4, 11]: 52 nM | effects on the protein levels of GSPT1 by immunoblotting ([2]; MV4-11 cells): no effects | Sol. (aqueous solubility) [1]: 64 µM | effects on the protein levels of IKZF1 by immunoblotting [3]: no effects | IKZF1 protein abundance after 24 hours [3]: dose-dependent decrease

Cc1c(Cl)cccc1S(=O)(=O)Nc1ccc2c(c1)C(=O)N(C1CCC(=O)NC1=O)C2=O (stereo not drawn) [compound 5, 3-chloro-N-(2-(2,6-dioxopiperidin-3-yl)-1,3-dioxoisoindolin-5-yl)-2-methylbenzenesulfonamide]
EC50 [4, 10]: 52 nM | time point at which caspase activation was observed [5]: 24 h | Dmax ([2]; MV4-11, read-out: GSPT1 maximum degradation efficacy, Dmax): 60% | Sol. (aqueous solubility) [1]: 64 µM | IKZF1 degradation at 4 hours [3]: did not significantly degrade IKZF1 | antiproliferative effect in presence of lenalidomide [7]: abrogating the antiproliferative effects

Cc1ccc(S(=O)(=O)Nc2ccc3c(c2)C(=O)N(C2CCC(=O)NC2=O)C3=O)cc1Cl (stereo not drawn) [compound 7, 3-chloro-N-(2-(2,6-dioxopiperidin-3-yl)-1,3-dioxoisoindolin-5-yl)-4-methylbenzenesulfonamide]
EC50 [4, 10]: > 10000 nM

O=C1CCC(N2C(=O)c3ccc(NS(=O)(=O)c4ccccc4)cc3C2=O)C(=O)N1 (stereo not drawn) [compound 20, N-(2-(2,6-dioxopiperidin-3-yl)-1,3-dioxoisoindolin-5-yl)benzenesulfonamide]
EC50 [4, 10]: > 10000 nM | cell potency in MV4-11 cells (in words) ([4]; MV4-11 cells): inactive | Sol. (aqueous solubility) [1]: 71 µM

O=C1CCC(N2Cc3cc(NS(=O)(=O)c4ccccc4)ccc3C2=O)C(=O)N1 (stereo not drawn) [compound 38, N-(2-(2,6-dioxopiperidin-3-yl)-1-oxoisoindolin-5-yl)benzenesulfonamide]
DC50 [8]: > 10 µM

O=C1CCC(N2Cc3cc(NS(=O)(=O)c4cccc(OC(F)(F)F)c4)ccc3C2=O)C(=O)N1 (stereo not drawn) [compound 43, N-(2-(2,6-dioxopiperidin-3-yl)-1-oxoisoindolin-5-yl)-3-(trifluoromethoxy)benzenesulfonamide]
DC50 [8]: < 1 µM

O=C1CCC(N2Cc3cc(NS(=O)(=O)c4ccccc4C(F)(F)F)ccc3C2=O)C(=O)N1 (stereo not drawn) [compound 44, N-(2-(2,6-dioxopiperidin-3-yl)-1-oxoisoindolin-5-yl)-2-(trifluoromethyl)benzenesulfonamide]
DC50 [8]: > 10 µM

CC(C)(C)c1ccc(S(=O)(=O)Nc2ccc3c(c2)CN(C2CCC(=O)NC2=O)C3=O)cc1 (stereo not drawn) [compound 46]
DC50 [8]: < 1 µM

Cc1ccc(CS(=O)(=O)Nc2ccc3c(c2)C(=O)N(C2CCC(=O)NC2=O)C3=O)cc1 (stereo not drawn) [compound 58, N-(2-(2,6-dioxopiperidin-3-yl)-1,3-dioxoisoindolin-5-yl)-1-(p-tolyl)methanesulfonamide]
IC50 [9]: < 1000 nM

Cc1noc(C)c1S(=O)(=O)Nc1ccc2c(c1)C(=O)N(C1CCC(=O)NC1=O)C2=O (stereo not drawn) [compound 60, N-(2-(2,6-dioxopiperidin-3-yl)-1,3-dioxoisoindolin-5-yl)-3,5-dimethylisoxazole-4-sulfonamide]
IC50 [9]: < 1000 nM

O=C1CCC(N2C(=O)c3ccc(NS(=O)(=O)c4cccc(Cl)c4F)cc3C2=O)C(=O)N1 (stereo not drawn) [compound 61, 3-chloro-N-(2-(2,6-dioxopiperidin-3-yl)-1,3-dioxoisoindolin-5-yl)-2-fluorobenzenesulfonamide]
IC50 [9]: < 1000 nM

O=C1CCC(N2C(=O)c3ccc(NS(=O)(=O)c4ccc(F)cc4Cl)cc3C2=O)C(=O)N1 (stereo not drawn) [compound 67, 2-chloro-N-(2-(2,6-dioxopiperidin-3-yl)-1,3-dioxoisoindolin-5-yl)-4-fluorobenzenesulfonamide]
DC50 [8]: > 10 µM | IC50 [9]: < 1000 nM
